Legend:
BACE1 [1] = biological target: T1, BACE1 (Homo sapiens, UniProt P56817); experiment: BACE1 enzymatic assay (FRET); assay type: biochemical
Procedure: BACE1 enzymatic assay. BACE1 in vitro assays were carried out using FRET.
μM) carrying the Swedish mutation and containing a rhodamine as a fluorescence donor and a quencher acceptor at each end was used. The intact substrate is weakly fluorescent and becomes highly fluorescent upon enzymatic cleavage.
The assays were conducted in 50 mM sodium acetate buffer, pH 4.5, in a final

LRRK2 = biological target: T2, LRRK2 (Homo sapiens, UniProt Q5S007); experiment: LRRK2 inhibition enzymatic assay (Adapta, ThermoFisher); assay type: biochemical
T2 construct: purchased ThermoFisher (assay run by the company)

BACE1 [2] = biological target: T1, BACE1; experiment: Evaluation of BACE inhibitors kinetics (Lineweaver-Burk); assay type: biochemical; settings: different concentrations of substrate and compound
Procedure: enzyme concentration (1 U/mL). Inhibitor screening at 10 μM. The mixture was incubated for 60 min at 25 °C under dark conditions and then stopped with 2.5 M sodium acetate. Fluorescence was measured with a FLUOstar Optima (BMG
Labtechnologies GmbH, Offenburg, Germany) microplate reader at 545 nm excitation and 585 nm emission.
Evaluation of BACE Inhibitors Kinetics. To evaluate the mechanism of BACE1 inhibition of the compounds, substrate-dependent kinetic experiments were performed. BACE activity were measured at five different concentrations substrate (1000 -62,5 µM) in the absence or presence of the select inhibitor at two different concentrations. The results are presented as double reciprocal Lineweaver−Burk plots (1/V vs 1/[S]) Figure S1.
Cell culture and treatments. SK-N-MC cells stably expressing the human isoform APP695 (SK-APP cell line D1; SKAPP-D1) were generated by transfection of SK-N-MC cells with a pCDNA3-APP expression vector, and kindly provided by Dr. MJ Bullido. These cells were cultured in DMEM (Thermo Fisher) medium supplemented with 10% FBS (Thermo Fisher), 1 mM glutamine (Sigma-Aldrich), and 100 unit/ml penicillin (Lonza) and […] streptomycin (Lonza).
Cell cultures were maintained in a 5% CO2, humidified atmosphere at 37 °C. […]

SK-APP cells = experiment: Aβ40 and Aβ42 levels in SK-APP cells (sandwich ELISA); assay type: cell-based, human; settings: 10 μM, 48 h treatment
Procedure: page 35: enzyme concentration (1 U/mL). Inhibitor screening at 10 μM. The mixture was incubated for 60 min at 25 °C under dark conditions and then stopped with 2.5 M sodium acetate. Fluorescence was measured with a FLUOstar Optima (BMG Labtechnologies GmbH, Offenburg, Germany) microplate reader at 545 nm excitation and 585 nm emission. Evaluation of BACE Inhibitors Kinetics. To evaluate the mechanism of BACE1 inhibition of the compounds, substrate-dependent kinetic experiments were performed. BACE activity were measured at five different concentrations substrate (1000 -62,5 μM) in the absence or presence of the select inhibitor at two different concentrations. The results are presented as double reciprocal Lineweaver-Burk plots (1/V vs 1/[S]) Figure S1. Cell culture and treatments. SK-N-MC cells stably expressing the human isoform APP695 (SK-APP cell line […]1) were generated by transfection of SK-N-MC cells with a pCDNA3-APP expression vector, and kindly provided by Dr. MJ Bullido. These cells were cultured in DMEM (Thermo Fisher) medium supplemented with 10% FBS (Thermo Fisher), 1 mM glutamine (Sigma- Aldrich), and 100 unit/ml penicillin (Lonza) and […] streptomycin (Lonza). Cell cultures were maintained in a 5% CO2, humidified atmosphere at 37 °C. SH-SY5Y cells were obtained from the American Type Culture Collection and grown in DMEM media (Gibco), supplemented with 10% foetal bovine serum, and 1% penicillin/streptomycin (Invitrogen). The cells were grown at 37 °C in a humidified 5% CO2 atmosphere. For the treatments, all the compounds were dissolved in dimethyl sulfoxide (DMSO, from Sigma) at an initial stock concentration of 10 mM. […] working solutions were obtained from the dilution of the stock solutions in DMEM media (DMSO control solutions were prepared similarly to the compounds). Okadaic acid (OA, Sigma-Aldrich) was dissolved in DMSO at an initial stock concentration of 60 μM and a 250X working solution was obtained from the dilution of the stock solution in DMEM. All the compounds (250x solutions) were added directly into the wells at the indicated final concentrations for 1 hour before the treatment with OA at a final concentration of 30 nM. DMSO was added at the appropriate concentration to the 34 page 36: control-untreated cells. The cells were maintained in the presence of the OA and the different compounds for 24h. Measurement of cell viability. Cell viability assays were carried out using a 3- […] (Sigma-Aldrich) in 96-well cell culture plates. All cells were then incubated with a 0.5 mg/ml MTT solution (Sigma-Aldrich) at 37 °C for 4 h and then with cell lysis […] The absorbance values were determined at 590 nm. Cell viability was expressed as a percent of OD of control cells, the value of which was defined as 100%. Cell viability in SH-SY5Y were carried out following the same procedure but seeding the cells in 24 well multiplates. Absorbance was measured using a Varioskan Flash multiplate reader (Thermo Scientific) at test 550 nm and reference 664 nm wave-lengths. Compound concentration for SK-APP line was 10 μM and for the SH-SY5Y was 1 and 5 μM. Immunoassays. Levels of Aβ40 and Aβ42 were quantified by sandwich ELISAs (Wako, Osaka, Japan) from cellular lysates and conditioned media collected. CNS penetration: in vitro PAMPA-BBB test. Prediction of the brain penetration was evaluated using a parallel artificial membrane permeability assay (PAMPA).1 Nine quality control compounds (mentioned below) of know BBB permeability were included in each experiment to validate the analysis set.2 Commercial drugs […] dissolved in 250 μL of DMSO (Sigma-Aldrich). 25 μL of these compound stock solutions were taken and 225 μL of DMSO and 4750 μL of PBS pH 7.4 buffer were added to reach 5% of DMSO concentration in the experiment and a final […] Compounds to be determined their ability to pass the brain barrier (0.5-1 mg) were dissolved in 250 μL of DMSO and 4750 μL of PBS pH 7.4 was carefully added to afford a final […]

T1 sequence (P56817 46-501): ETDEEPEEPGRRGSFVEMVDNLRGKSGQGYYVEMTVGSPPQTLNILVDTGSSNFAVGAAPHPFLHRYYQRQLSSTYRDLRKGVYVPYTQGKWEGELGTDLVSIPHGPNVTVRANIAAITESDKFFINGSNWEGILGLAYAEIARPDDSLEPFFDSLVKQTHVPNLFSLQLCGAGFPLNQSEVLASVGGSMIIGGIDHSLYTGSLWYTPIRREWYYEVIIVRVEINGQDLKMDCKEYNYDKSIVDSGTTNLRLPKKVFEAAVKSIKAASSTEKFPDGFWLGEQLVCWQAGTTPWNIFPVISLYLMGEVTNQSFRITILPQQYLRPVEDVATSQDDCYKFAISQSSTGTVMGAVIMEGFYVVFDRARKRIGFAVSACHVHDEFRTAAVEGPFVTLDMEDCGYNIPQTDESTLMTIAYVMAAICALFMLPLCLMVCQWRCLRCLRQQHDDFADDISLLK
T2 sequence (Q5S007 whole entry): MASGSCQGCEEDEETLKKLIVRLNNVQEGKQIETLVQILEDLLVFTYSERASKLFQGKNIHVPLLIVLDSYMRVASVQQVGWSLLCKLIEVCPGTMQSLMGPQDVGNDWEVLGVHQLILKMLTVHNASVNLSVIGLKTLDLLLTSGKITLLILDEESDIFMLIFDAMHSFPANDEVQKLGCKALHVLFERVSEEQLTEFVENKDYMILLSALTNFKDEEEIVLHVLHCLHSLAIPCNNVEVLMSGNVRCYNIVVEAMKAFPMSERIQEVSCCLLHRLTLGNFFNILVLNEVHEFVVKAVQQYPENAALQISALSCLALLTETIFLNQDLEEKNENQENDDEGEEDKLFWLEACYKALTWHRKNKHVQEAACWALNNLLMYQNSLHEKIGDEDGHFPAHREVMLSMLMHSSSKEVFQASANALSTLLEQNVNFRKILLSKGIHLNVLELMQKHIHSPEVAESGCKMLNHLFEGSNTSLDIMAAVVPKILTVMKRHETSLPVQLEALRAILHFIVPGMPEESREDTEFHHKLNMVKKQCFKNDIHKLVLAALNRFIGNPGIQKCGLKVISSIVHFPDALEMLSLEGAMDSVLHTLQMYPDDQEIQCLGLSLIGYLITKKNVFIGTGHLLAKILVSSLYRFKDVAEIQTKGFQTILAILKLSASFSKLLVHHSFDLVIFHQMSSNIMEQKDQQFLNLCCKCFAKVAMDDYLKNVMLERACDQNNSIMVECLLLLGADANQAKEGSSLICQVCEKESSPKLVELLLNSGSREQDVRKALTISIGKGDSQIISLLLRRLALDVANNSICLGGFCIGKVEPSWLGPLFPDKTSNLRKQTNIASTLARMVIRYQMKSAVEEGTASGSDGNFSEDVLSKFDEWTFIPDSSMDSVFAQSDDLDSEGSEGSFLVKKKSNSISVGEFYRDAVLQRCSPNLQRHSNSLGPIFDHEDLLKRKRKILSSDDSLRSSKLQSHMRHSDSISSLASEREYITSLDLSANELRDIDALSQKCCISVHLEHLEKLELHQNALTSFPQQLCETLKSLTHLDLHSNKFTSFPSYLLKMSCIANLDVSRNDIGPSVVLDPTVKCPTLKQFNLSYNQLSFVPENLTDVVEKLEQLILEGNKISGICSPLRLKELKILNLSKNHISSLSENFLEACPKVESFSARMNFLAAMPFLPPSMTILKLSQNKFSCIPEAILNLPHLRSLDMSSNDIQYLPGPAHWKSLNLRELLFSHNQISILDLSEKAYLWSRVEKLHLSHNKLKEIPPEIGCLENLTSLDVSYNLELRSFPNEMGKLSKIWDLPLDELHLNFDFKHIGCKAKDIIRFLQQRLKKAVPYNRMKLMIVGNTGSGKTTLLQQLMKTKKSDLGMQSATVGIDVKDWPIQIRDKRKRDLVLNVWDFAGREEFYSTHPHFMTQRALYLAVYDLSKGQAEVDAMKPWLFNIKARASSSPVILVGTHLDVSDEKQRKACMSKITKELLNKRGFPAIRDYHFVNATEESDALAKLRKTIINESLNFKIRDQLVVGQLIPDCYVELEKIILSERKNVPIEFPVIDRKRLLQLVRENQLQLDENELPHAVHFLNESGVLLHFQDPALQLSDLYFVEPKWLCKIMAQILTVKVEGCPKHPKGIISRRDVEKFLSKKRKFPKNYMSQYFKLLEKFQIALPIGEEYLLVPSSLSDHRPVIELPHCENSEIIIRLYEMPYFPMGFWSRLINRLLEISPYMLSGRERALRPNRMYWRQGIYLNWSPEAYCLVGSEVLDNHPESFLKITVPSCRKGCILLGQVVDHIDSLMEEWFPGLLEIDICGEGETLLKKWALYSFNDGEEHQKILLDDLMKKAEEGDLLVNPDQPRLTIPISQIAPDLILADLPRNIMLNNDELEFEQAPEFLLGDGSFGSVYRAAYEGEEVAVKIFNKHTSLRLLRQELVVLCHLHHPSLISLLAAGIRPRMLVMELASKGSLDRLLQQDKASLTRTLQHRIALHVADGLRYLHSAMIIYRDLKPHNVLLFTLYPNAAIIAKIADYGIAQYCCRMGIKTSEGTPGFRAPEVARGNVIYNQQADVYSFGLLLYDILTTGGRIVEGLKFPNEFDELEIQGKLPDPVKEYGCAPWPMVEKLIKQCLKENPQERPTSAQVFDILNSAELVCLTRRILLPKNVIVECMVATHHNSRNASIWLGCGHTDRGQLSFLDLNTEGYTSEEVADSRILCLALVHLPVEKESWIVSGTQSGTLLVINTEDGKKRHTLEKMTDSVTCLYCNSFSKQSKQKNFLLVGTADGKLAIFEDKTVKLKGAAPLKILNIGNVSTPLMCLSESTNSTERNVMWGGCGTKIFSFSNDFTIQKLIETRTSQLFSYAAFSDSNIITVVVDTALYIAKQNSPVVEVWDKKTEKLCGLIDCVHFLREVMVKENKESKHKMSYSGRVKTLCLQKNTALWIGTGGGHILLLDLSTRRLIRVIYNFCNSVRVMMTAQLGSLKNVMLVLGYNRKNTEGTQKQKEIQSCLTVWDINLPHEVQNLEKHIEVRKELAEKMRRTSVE

- IC50 (BACE1 [1]): 3.72 µM
- melting point: 280 to 282 °C (dec.)
- IC50 (LRRK2): 1.83 µM
- Behavior in the inhibition of BACE1 (Lineweaver–Burk double reciprocal plot) (BACE1 [2]): substrate‐competitive
SMILES: O=C(Nc1nc2ccccc2s1)c1ccc(Cn2cc(COc3ccc(C(=O)Nc4nc5ccccc5s4)cc3)nn2)cc1 [compound 8]
- Aβ40 levels in cellular lysates (SK-APP cells): reducing
- Aβ40 levels in extracellular fluid (SK-APP cells): reducing
- Aβ42 levels in extracellular fluid (SK-APP cells): reducing
